From US8080529B2, “Macrolides with anti-inflammatory activity” (Glaxo Group Limited, priority 2005, dated 2011)
Like-named read-outs stand apart in the source and are kept apart here.

Key:
Format in all cases: cell-based
TNF-α = assay: Inhibition of TNF-α production by stimulated human peripheral blood leukocytes in vitro; settings: for inhibition at 10 µM / inhibition at 50 µM: Homo sapiens, Leukocyte, read-out: Percentage of inhibition of TNF-α production
Description: (§1) Test substances used in in vitro experiments were dissolved in dimethyl sulfoxide (DMSO) (Kemika, Croatia) at concentrations of 50 mM and 10 mM, and were further diluted to final concentrations of 50 μM and 10 μM in 1 mL Dulbecco's modified Eagle medium (DMEM) supplemented with 1% heat inactivated fetal bovine serum (FBS), 1% L-glutamine, 50 U/ml penicillin, 50 μg/ml streptomycin and 2.5 μg/mL Fungizone (amphotericin B). Media and all media supplements were purchased from Gibco, Australia, except the FBS was purchased from Sigma, USA.
(§2) Peripheral blood leukocytes (PBL) were obtained from venous blood of healthy volunteers by sedimentation on 2% dextran T-500 (Amersham Biosciences, USA) and subsequent centrifugations of leukocyte rich plasma.
(§3) Peripheral blood leukocytes (PBL), isolated as described above, were seeded in a 48-well plate at a concentration of 3 to 5×10^6 cell per well in culture medium consisting of RPMI 1640 medium (Institute of Immunology, Croatia) supplemented with 10% heat-inactivated fetal calf serum (FCS, Biowhittaker, USA), 100 U/ml penicillin (Gibco, Australia), 100 μg/ml streptomycin (Gibco, Australia) and 2 mM L-glutamine (Gibco, Australia), and preincubated with the test compounds for 2 h at 37° C., in an atmosphere of 5% CO2, and 90% humidity. Then, stimuli (Sigma, USA) were added to a final concentration of 2 μg/mL lipopolysaccharide (LPS), 1 μg/mL phorbol 12-myristate 13-acetate (PMA) or 120 μg/mL zymosan. Samples were incubated overnight under conditions described above. At the end of incubation, the supernatants were transferred to eppendorf tubes and centrifuged for 10 min at 1500×g. Concentrations of human TNF-α, IL-1β, IL-6 and IL-8 were determined in cell supernatants by sandwich ELISA, using capture and detection antibodies (R&D Systems, Minneapolis, Minn.) according to the manufacturer's recommendations.
(§4) Inhibition (as percentage) was calculated using the following formula: % inhibition=(1−concentration of cytokines in sample/concentration of cytokines in positive control)×100.
(§5) The positive control refers to LPS-, PMA- or zymosan-stimulated samples that were not preincubated with test compounds.

IL-1α = assay: Inhibition of IL-1 production by stimulated human peripheral blood leukocytes in vitro; settings: for inhibition at 10 µM / inhibition at 50 µM: Homo sapiens, Leukocyte, read-out: Percentage of inhibition of IL-1α production
IL-6 = assay: Inhibition of IL-6 production by stimulated human peripheral blood leukocytes in vitro; settings: for inhibition at 10 µM / inhibition at 50 µM: Homo sapiens, Leukocyte, read-out: Percentage of inhibition of IL-6 production
Description: as §1, §2, §3, §4, §5

IL-8 = assay: Inhibition of IL-8 production by stimulated human peripheral blood leukocytes in vitro; settings: for inhibition at 10 µM / inhibition at 50 µM: Homo sapiens, Leukocyte, read-out: Percentage of inhibition of IL-8 production
Description: as §1, §2, §3, §4, §5

CC[C@H]1OC(=O)[C@H](C)[C@@H](O[C@H]2C[C@@](C)(OC)[C@@H](OCCCN(CC)CC)[C@H](C)O2)[C@H](C)[C@@H](O[C@@H]2O[C@H](C)C[C@H](N(C)C)[C@H]2O)[C@](C)(O)C[C@@H](C)CN(C)[C@H](C)[C@H]2OC(=O)O[C@@]21C [Example 95, 4″-O-(3-diethylamino-propyl)-azithromycin 11,12-cyclic carbonate]
Percentage of inhibition of TNF-α production (TNF-α; 10 μM, LPS-stimulated PBL): 12% | Percentage of inhibition of TNF-α production (TNF-α; 10 μM, PMA-stimulated PBL): 34% | Percentage of inhibition of TNF-α production (TNF-α; 10 μM, zymosan-stimulated PBL): 47% | Percentage of inhibition of TNF-α production (TNF-α; 50 μM, LPS-stimulated PBL): 30% | Percentage of inhibition of TNF-α production (TNF-α; 50 μM, PMA-stimulated PBL): 50% | Percentage of inhibition of TNF-α production (TNF-α; 50 μM, zymosan-stimulated PBL): 63% | Percentage of inhibition of IL-1α production (IL-1α; 10 μM, LPS-stimulated PBL): 0% | Percentage of inhibition of IL-1α production (IL-1α; 10 μM, PMA-stimulated PBL): 25% | Percentage of inhibition of IL-1α production (IL-1α; 10 μM, zymosan-stimulated PBL): 38% | Percentage of inhibition of IL-1α production (IL-1α; 50 μM, LPS-stimulated PBL): 0% | Percentage of inhibition of IL-1α production (IL-1α; 50 μM, PMA-stimulated PBL): 75% | Percentage of inhibition of IL-1α production (IL-1α; 50 μM, zymosan-stimulated PBL): 42% | Percentage of inhibition of IL-6 production (IL-6; 10 μM, LPS-stimulated PBL): 1% | Percentage of inhibition of IL-6 production (IL-6; 10 μM, PMA-stimulated PBL): 17% | Percentage of inhibition of IL-6 production (IL-6; 10 μM, zymosan-stimulated PBL): 18% | Percentage of inhibition of IL-6 production (IL-6; 50 μM, LPS-stimulated PBL): 8% | Percentage of inhibition of IL-6 production (IL-6; 50 μM, PMA-stimulated PBL): 56% | Percentage of inhibition of IL-6 production (IL-6; 50 μM, zymosan-stimulated PBL): 58% | Percentage of inhibition of IL-8 production (IL-8; 10 μM, LPS-stimulated PBL): 0% | Percentage of inhibition of IL-8 production (IL-8; 10 μM, PMA-stimulated PBL): 0% | Percentage of inhibition of IL-8 production (IL-8; 10 μM, zymosan-stimulated PBL): 5% | Percentage of inhibition of IL-8 production (IL-8; 50 μM, LPS-stimulated PBL): 16% | Percentage of inhibition of IL-8 production (IL-8; 50 μM, PMA-stimulated PBL): 21% | Percentage of inhibition of IL-8 production (IL-8; 50 μM, zymosan-stimulated PBL): 33%

CC[C@H]1OC(=O)[C@H](C)[C@@H](O[C@H]2C[C@@](C)(OC)[C@@H](OCCCN(CC)CC)[C@H](C)O2)[C@H](C)[C@@H](O[C@@H]2O[C@H](C)C[C@H](N(C)C)[C@H]2O)[C@](C)(O)C[C@@H](C)CN(C)[C@H](C)[C@@H](O)[C@]1(C)O [Example 96, 4″-O-(3-diethylamino-propyl)-azithromycin]
inhibition at 10 µM (TNF-α; 10 μM, LPS-stimulated PBL): 3% | inhibition at 10 µM (TNF-α; 10 μM, PMA-stimulated PBL): 14% | inhibition at 10 µM (TNF-α; 10 μM, zymosan-stimulated PBL): 21% | inhibition at 50 µM (TNF-α; 50 μM, LPS-stimulated PBL): 13% | inhibition at 50 µM (TNF-α; 50 μM, PMA-stimulated PBL): 48% | inhibition at 50 µM (TNF-α; 50 μM, zymosan-stimulated PBL): 61% | inhibition at 10 µM (IL-1α; 10 μM, LPS-stimulated PBL): 0% | inhibition at 10 µM (IL-1α; 10 μM, PMA-stimulated PBL): 32% | inhibition at 10 µM (IL-1α; 10 μM, zymosan-stimulated PBL): 36% | inhibition at 50 µM (IL-1α; 50 μM, LPS-stimulated PBL): 0% | inhibition at 50 µM (IL-1α; 50 μM, PMA-stimulated PBL): 81% | inhibition at 50 µM (IL-1α; 50 μM, zymosan-stimulated PBL): 88% | inhibition at 10 µM (IL-6; 10 μM, LPS-stimulated PBL): 0% | inhibition at 10 µM (IL-6; 10 μM, PMA-stimulated PBL): 27% | inhibition at 10 µM (IL-6; 10 μM, zymosan-stimulated PBL): 17% | inhibition at 50 µM (IL-6; 50 μM, LPS-stimulated PBL): 3% | inhibition at 50 µM (IL-6; 50 μM, PMA-stimulated PBL): 64% | inhibition at 50 µM (IL-6; 50 μM, zymosan-stimulated PBL): 76% | inhibition at 10 µM (IL-8; 10 μM, LPS-stimulated PBL): 0% | inhibition at 10 µM (IL-8; 10 μM, PMA-stimulated PBL): 0% | inhibition at 10 µM (IL-8; 10 μM, zymosan-stimulated PBL): 6% | inhibition at 50 µM (IL-8; 50 μM, LPS-stimulated PBL): 17% | inhibition at 50 µM (IL-8; 50 μM, PMA-stimulated PBL): 12% | inhibition at 50 µM (IL-8; 50 μM, zymosan-stimulated PBL): 40%

CCC1OC(=O)C(C)C(OC2CC(C)(OC)C(OCCCN3CCN(CCN(CC)CC)CC3)C(C)O2)C(C)C(OC2OC(C)CC(N(C)C)C2O)C(C)(O)CC(C)CN(C)C(C)C2OC(=O)OC12C (stereo not drawn) [Example 97, 4″-O-{3-[4-(2-Diethylamino-ethyl)-piperazin-1-yl]-propyl}azithromycin 11,12-cyclic carbonate]
Percentage of inhibition of TNF-α production (TNF-α; 10 μM, LPS-stimulated PBL): 0% | Percentage of inhibition of TNF-α production (TNF-α; 10 μM, PMA-stimulated PBL): 31% | Percentage of inhibition of TNF-α production (TNF-α; 10 μM, zymosan-stimulated PBL): 43% | Percentage of inhibition of TNF-α production (TNF-α; 50 μM, LPS-stimulated PBL): 62% | Percentage of inhibition of TNF-α production (TNF-α; 50 μM, PMA-stimulated PBL): 57% | Percentage of inhibition of TNF-α production (TNF-α; 50 μM, zymosan-stimulated PBL): 69% | Percentage of inhibition of IL-1α production (IL-1α; 10 μM, LPS-stimulated PBL): 0% | Percentage of inhibition of IL-1α production (IL-1α; 10 μM, PMA-stimulated PBL): 57% | Percentage of inhibition of IL-1α production (IL-1α; 10 μM, zymosan-stimulated PBL): 49% | Percentage of inhibition of IL-1α production (IL-1α; 50 μM, LPS-stimulated PBL): 0% | Percentage of inhibition of IL-1α production (IL-1α; 50 μM, PMA-stimulated PBL): 79% | Percentage of inhibition of IL-1α production (IL-1α; 50 μM, zymosan-stimulated PBL): 34% | Percentage of inhibition of IL-6 production (IL-6; 10 μM, LPS-stimulated PBL): 0% | Percentage of inhibition of IL-6 production (IL-6; 10 μM, PMA-stimulated PBL): 32% | Percentage of inhibition of IL-6 production (IL-6; 10 μM, zymosan-stimulated PBL): 9% | Percentage of inhibition of IL-6 production (IL-6; 50 μM, LPS-stimulated PBL): 14% | Percentage of inhibition of IL-6 production (IL-6; 50 μM, PMA-stimulated PBL): 51% | Percentage of inhibition of IL-6 production (IL-6; 50 μM, zymosan-stimulated PBL): 56% | Percentage of inhibition of IL-8 production (IL-8; 10 μM, LPS-stimulated PBL): 0% | Percentage of inhibition of IL-8 production (IL-8; 10 μM, PMA-stimulated PBL): 4% | Percentage of inhibition of IL-8 production (IL-8; 10 μM, zymosan-stimulated PBL): 10% | Percentage of inhibition of IL-8 production (IL-8; 50 μM, LPS-stimulated PBL): 23% | Percentage of inhibition of IL-8 production (IL-8; 50 μM, PMA-stimulated PBL): 29% | Percentage of inhibition of IL-8 production (IL-8; 50 μM, zymosan-stimulated PBL): 34%
